The text below walks through data of ChEMBL document CHEMBL3046231 (Med Chem Res, 2008).

Data set [1] relates to Mus musculus. In words: Toxicity in Mus musculus albino (mouse) assessed as effect on gross behavior at 75 umole/kg, ip. The following applies: in vivo. The data set is classed as organism-based.
Data set [2] relates to Mus musculus. Description: Antidepressant activity in Mus musculus albino (mouse) assessed as reversal of reserpine-induced ptosis at 75 umole/kg, ip after 3 hr by chi-square test relative to control. The data set is classed as functional.
The test system of data set [3] is Mus musculus. Description: Anorexigenic activity in Mus musculus albino (mouse) assessed as reduction of milk intake at 75 umole/kg, ip relative to control. Details: scale not given: the % may be the effect or the level left. The data set is classed as functional.

`COc1ccc(NC(=S)N(C)CCC(Oc2ccc(C(F)(F)F)cc2)c2ccccc2)cc1` (configuration not stated): the Activity result in the data set with Mus musculus [1] was “Non-toxic”; in the data set on Mus musculus [2], 100%.
On to `CN(CCC(Oc1ccc(C(F)(F)F)cc1)c1ccccc1)C(=S)NCCc1ccccc1` (configuration not stated), for which the Activity result is recorded as “Non-toxic” in the data set on Mus musculus [1] and 40% in the data set on Mus musculus [2].
On to `CN(CCC(Oc1ccc(C(F)(F)F)cc1)c1ccccc1)C(=S)NCc1ccccc1` (configuration not stated), for which the Activity entry was “Non-toxic” in the data set with Mus musculus [1] and 100% in the data set on Mus musculus [2].
As for `CN(C[C@@H]1CCc2ccccc2[C@@H]1Oc1ccc(C(F)(F)F)cc1)C(=S)NCCc1ccccc1`, the figures for the Activity entry with Mus musculus [1] and in the data set on Mus musculus [2] were “Non-toxic” and 100%, respectively.
For `CN(CCC(Oc1ccc(C(F)(F)F)cc1)c1ccccc1)C(=O)NC1CCCCC1` (configuration not stated) the same measures were “Non-toxic” and 80%.
`Cc1ccc(NC(=S)N(C)CCC(Oc2ccc(C(F)(F)F)cc2)c2ccccc2)cc1` (configuration not stated): the Activity result in the data set on Mus musculus [1] is given as “Non-toxic”; with Mus musculus [2], 80%.
Regarding `COc1cc(NC(=S)N(C)CCC(Oc2ccc(C(F)(F)F)cc2)c2ccccc2)cc(OC)c1OC` (configuration not stated), the Activity entry is on record as “Non-toxic” in the data set with Mus musculus [1] and 100% with Mus musculus [2].
The matching figures for `CN(CCC(Oc1ccc(C(F)(F)F)cc1)c1ccccc1)C(=S)NC(=O)c1ccccc1` (configuration not stated): “Non-toxic” and 100%.
With `CN(C[C@@H]1CCc2ccccc2[C@@H]1Oc1ccc(C(F)(F)F)cc1)C(=O)NC1CCCCC1`, the Activity entry with Mus musculus [1] is on record as “Non-toxic”; in the data set on Mus musculus [2], 100%.
Turning to `CC1CCC(NC(=S)N(C)CCC(Oc2ccc(C(F)(F)F)cc2)c2ccccc2)CC1` (configuration not stated), the values for the Activity entry in the data set on Mus musculus [1] and in the data set on Mus musculus [2] were “Non-toxic” and 60%, respectively.
For `CN(CCC(Oc1ccc(C(F)(F)F)cc1)c1ccccc1)C(=S)NC1CCCCC1` (configuration not stated), the figures for the Activity entry in the data set on Mus musculus [1] and in the data set with Mus musculus [2] were “Non-toxic” and 100%, respectively.
On to `CN(CCC(Oc1ccc(C(F)(F)F)cc1)c1ccccc1)C(=S)Nc1ccccc1` (configuration not stated), for which the Activity entry is reported as “Non-toxic” with Mus musculus [1] and 100% with Mus musculus [2].
`CN(C[C@@H]1CCc2ccccc2[C@@H]1Oc1ccc(C(F)(F)F)cc1)C(=O)NCCc1ccccc1`: the Activity entry is recorded as “Non-toxic” in the data set with Mus musculus [1] and 100% with Mus musculus [2].
On to `COC(=O)[C@H]1[C@H]2C[C@@H]3c4[nH]c5cc(OC)ccc5c4CCN3C[C@H]2C[C@@H](OC(=O)c2cc(OC)c(OC)c(OC)c2)[C@@H]1OC` [RESERPINE], for which the Activity in the data set with Mus musculus [2] is reported as 100%.
As for `CNCCC(Oc1ccc(C(F)(F)F)cc1)c1ccccc1` (configuration not stated) [FLUOXETINE], the Activity in the data set with Mus musculus [2] is listed as 0%; with Mus musculus [3] it was 78.49%.
In the case of `CN(CCC(Oc1ccc(C(F)(F)F)cc1)c1ccccc1)C(=O)NCCc1ccccc1` (configuration not stated), the Activity entry is reported as “Non-toxic” in the data set with Mus musculus [1] and 100% in the data set with Mus musculus [2].
The matching figures for `CC(C)NC(=S)N(C)CCC(Oc1ccc(C(F)(F)F)cc1)c1ccccc1` (configuration not stated): “Non-toxic” and 100%.
Regarding `CN(CCC(Oc1ccc(C(F)(F)F)cc1)c1ccccc1)C(=S)NC(C)(C)C` (configuration not stated), the Activity entry with Mus musculus [1] was “Non-toxic”; in the data set with Mus musculus [2], 100%.
In the case of `CC1CCC(NC(=O)N(C)C[C@@H]2CCc3ccccc3[C@@H]2Oc2ccc(C(F)(F)F)cc2)CC1` (some centres not stated), the Activity result in the data set with Mus musculus [1] is given as “Non-toxic”; in the data set on Mus musculus [2], 80%.
